Laboratory results: publication PMC7556031, “Tofacitinib and Baricitinib Are Taken up by Different Uptake Mechanisms Determining the Efficacy of Both Drugs in RA” (International Journal of Molecular Sciences, 2020)

Target: T1, hMATE1 (multidrug and toxin extrusion protein 1) (Homo sapiens, UniProt Q96FL8)
T1 construct: gene SLC47A1; hMATE1 stably transfected in HEK293 cells
T1 sequence (Q96FL8 1-570): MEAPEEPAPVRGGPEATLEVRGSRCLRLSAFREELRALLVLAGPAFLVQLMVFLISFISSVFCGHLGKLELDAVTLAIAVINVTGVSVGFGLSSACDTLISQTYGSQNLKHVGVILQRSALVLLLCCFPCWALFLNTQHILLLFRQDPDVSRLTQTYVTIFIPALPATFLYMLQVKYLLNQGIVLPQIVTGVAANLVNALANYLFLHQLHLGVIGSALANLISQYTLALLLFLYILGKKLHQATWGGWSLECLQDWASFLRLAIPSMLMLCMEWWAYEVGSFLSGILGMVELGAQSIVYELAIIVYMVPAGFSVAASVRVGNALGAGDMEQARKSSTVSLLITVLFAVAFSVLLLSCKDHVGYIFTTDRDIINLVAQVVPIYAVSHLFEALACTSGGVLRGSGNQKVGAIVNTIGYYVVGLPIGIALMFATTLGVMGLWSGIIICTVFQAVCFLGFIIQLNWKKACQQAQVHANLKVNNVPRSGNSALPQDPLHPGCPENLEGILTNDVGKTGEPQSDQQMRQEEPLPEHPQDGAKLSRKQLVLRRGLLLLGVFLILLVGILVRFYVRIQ
Assay: cis-inhibition of ASP+ uptake in hMATE1-HEK293 cells after acidification; supported by LC/MS of temperature-dependent tofacitinib export
Assay type: cell-based

Q: How did the IC50 turn out when `C[C@@H]1CCN(C(=O)CC#N)C[C@@H]1N(C)c1ncnc2[nH]ccc12` [Tofacitinib] was run?
A: Its IC50 is 19.8 µM.
